Assay results as given in patent publication US20050143450A1, “Alkyl PCDF as a treatment for prostate cancer” (priority 2002, published 2005).
Read-outs that look alike come from different tables or passages of the source.

Columns and labels:
[1] = target: T1, AR (Homo sapiens, UniProt P10275, T878A); format: cell-based; conditions: LNCaP; for effect on DHT-induced luciferase activity: pARR3, cotreatment with DHT; for effect on E2-induced luciferase activity: pARR3, cotreatment with E2
T1 construct: AR protein levels in whole cell lysates were determined by Western blot analysis; endogenous in cells; host or cells: LNCaP
T1 sequence (P10275 1-920 T878A): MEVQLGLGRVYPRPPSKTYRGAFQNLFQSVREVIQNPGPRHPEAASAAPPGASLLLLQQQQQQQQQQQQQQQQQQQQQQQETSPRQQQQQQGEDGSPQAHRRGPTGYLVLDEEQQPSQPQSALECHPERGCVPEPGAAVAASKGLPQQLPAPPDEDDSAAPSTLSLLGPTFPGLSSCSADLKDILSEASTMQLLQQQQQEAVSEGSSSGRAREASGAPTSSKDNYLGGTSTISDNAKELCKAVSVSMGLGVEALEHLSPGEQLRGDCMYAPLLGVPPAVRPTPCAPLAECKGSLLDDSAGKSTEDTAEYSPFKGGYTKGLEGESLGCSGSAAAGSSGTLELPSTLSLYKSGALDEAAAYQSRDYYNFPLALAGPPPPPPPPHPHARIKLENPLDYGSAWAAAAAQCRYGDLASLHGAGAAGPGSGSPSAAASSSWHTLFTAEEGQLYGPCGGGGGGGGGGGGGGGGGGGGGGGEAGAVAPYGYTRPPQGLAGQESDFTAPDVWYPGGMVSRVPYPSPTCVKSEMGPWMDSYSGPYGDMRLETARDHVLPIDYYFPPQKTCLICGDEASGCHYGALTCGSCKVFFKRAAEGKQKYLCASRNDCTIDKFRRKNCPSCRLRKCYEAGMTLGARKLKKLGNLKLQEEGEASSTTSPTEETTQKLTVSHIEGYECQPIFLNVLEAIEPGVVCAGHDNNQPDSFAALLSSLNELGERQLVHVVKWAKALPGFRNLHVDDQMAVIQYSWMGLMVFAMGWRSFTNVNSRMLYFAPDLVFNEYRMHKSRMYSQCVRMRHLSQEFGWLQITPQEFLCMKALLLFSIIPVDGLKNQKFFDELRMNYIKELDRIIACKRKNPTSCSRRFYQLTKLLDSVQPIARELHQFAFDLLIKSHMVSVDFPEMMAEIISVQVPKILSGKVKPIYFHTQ
Procedure: (§1) After 24 h, cells were transfected using Lipofectamine and Plus reagents (Invitrogen) according to manufacturer's instructions. LNCaP and ZR-75 cells were transfected with 500 ng/well of either reporter plasmid, and 250 ng/well of pcDNA3.1-β-gal (Invitrogen) as the internal control. In addition, ZR-75 cells were transfected with 500 ng hAR. Twenty-four hours after treatment, cells were harvested by scraping with 200 μL/well of reporter lysis buffer. Lysates were centrifuged at 40,000 g and luciferase and β-galactosidase activity was assayed with 30 μL of the supernatant extract per sample using a Lumicount luminometer (PerkinElmer, Boston, Mass.). Luciferase activity was normalized to β-galactosidase activity for each transfection well.
Next, LNCaP cells were transfected with pARR3 construct that contained three tandem (3) copies of the probasin androgen response element. The transfected cells were treated with hormone or AhR agonist alone or in combination and luciferase activity was determined as described in the above examples.

[2] = tested on: 22Rv1 cells; experiment: Growth inhibition of 22Rv1 prostate cancer cells; format: cell-based
Procedure: 22Rv1 cells were treated with various concentrations of TCDD.
In a second study, 22Rv1 cells were maintained in 10% serum, and various concentrations of 6-MCDF were added to the cells.

[3] = target: T1, AR; format: cell-based; conditions: LNCaP, pPB; for effect on E2-induced luciferase activity: cotreatment with 10 nM E2
Procedure: as §1
The transfected cells were then treated with hormone or AhR agonist alone or in combination and luciferase activity was determined as described in the above examples.

[4] = tested on: androgen-responsive probasin gene promoter (pPB); format: cell-based, human; conditions: ZR-75 cells, pPB alone
Procedure: as §1, with “ZR-75 human breast cancer and LNCaP human prostate cancer cells were obtained from American Type Culture Collection (Manassas, Va.) and were maintained in RPMI 1640 medium supplemented with 10% FBS, 1% antibiotic/antimycotic solution, 1.5 g/L sodium bicarbonate, and 10 mM HEPES, final pH of 7.4. Cells were seeded at 2.75×10^5 per 22-mm well in DME-F12 without phenol red, supplemented with 2.5% charcoal-stripped fetal bovine serum (FBS). After” for “After”

[5] = tested on: LNCaP cells; format: cell-based, human; conditions: six days; for growth of LNCaP cells in the presence of DHT: 10 nM DHT; for proliferation of LNCaP cells: absence of DHT, TCDD 1-100 nM
Procedure: After trypsinization and low-speed centrifugation, LNCaP cells were resuspended and counted using a Coulter cell counter (Beckman Coulter, Fullerton, Calif.). Cells were seeded at a density of 5×10^4/35-mm well using DME-F12 without phenol red, supplemented with 2.5% charcoal-stripped fetal bovine serum (FBS). Twenty-four hours after seeding, initial treatment was applied and then subsequently reapplied with fresh medium every two days until harvesting by trypsinization. Cells were counted after harvesting using a Coulter counter.

| SMILES | effect on DHT-induced luciferase activity [1] | effect on E2-induced luciferase activity [1] | 22Rv1 cell proliferation ([2]; cells maintained in 10% serum, various concentrations) | effect on E2-induced luciferase activity ([3]; HPTE 10 μM) | induction of luciferase activity by AhR agonist alone ([3]; MCDF 2 μM) | reporter gene activity [4] | growth of LNCaP cells in the presence of DHT [5] | proliferation of LNCaP cells [5] | testosterone-induced growth of 22Rv1 cells ([2]; 1 nM) | constitutive growth of 22Rv1 cells ([2]; 1 nM alone) | effect on DHT-induced luciferase activity ([3]; cotreatment with 10 nM DHT, MCDF 2 μM, HPTE 10 μM) |
| --- | --- | --- | --- | --- | --- | --- | --- | --- | --- | --- | --- |
| Cc1cc(Cl)cc2c1oc1cc(Cl)cc(Cl)c12 [6-MCDF, 6-methyl-1,3,8-trichlorodibenzofuran] | did not decrease | not a significant decrease | concentration-dependent decrease | significantly decreased | did not significantly induce activity | did not activate | inhibited growth | growth inhibition was also observed |  |  |  |
| Clc1cc2c(cc1Cl)Oc1cc(Cl)c(Cl)cc1O2 [TCDD, 2,3,7,8-tetrachloro-p-dioxin] | did not decrease | not a significant decrease |  | significantly decreased | did not significantly induce activity | did not activate | inhibited growth | significantly inhibited | inhibited | inhibited | significantly inhibited |
